biological target: full-length human ATR protein (Homo sapiens (Human), UniProt Q13535); experiment: Binding assay ATR (TR-FRET tracer displacement); details: tracer A, TR-FRET; read-out: ATR binding (tracer A) IC50
In short: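 Full-length human GST-ATR co-purified with ATRIP, pre-complexed 30 min at 22 °C with anti-GST-Tb antibody, then pre-bound with compound 10 min. Tracer A or B added (2 µl of 100 nM solution), 30 min at 22 °C.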

full-length human ATR protein, sequence (Q13535 other isoform, or with tags, fused parts or gaps): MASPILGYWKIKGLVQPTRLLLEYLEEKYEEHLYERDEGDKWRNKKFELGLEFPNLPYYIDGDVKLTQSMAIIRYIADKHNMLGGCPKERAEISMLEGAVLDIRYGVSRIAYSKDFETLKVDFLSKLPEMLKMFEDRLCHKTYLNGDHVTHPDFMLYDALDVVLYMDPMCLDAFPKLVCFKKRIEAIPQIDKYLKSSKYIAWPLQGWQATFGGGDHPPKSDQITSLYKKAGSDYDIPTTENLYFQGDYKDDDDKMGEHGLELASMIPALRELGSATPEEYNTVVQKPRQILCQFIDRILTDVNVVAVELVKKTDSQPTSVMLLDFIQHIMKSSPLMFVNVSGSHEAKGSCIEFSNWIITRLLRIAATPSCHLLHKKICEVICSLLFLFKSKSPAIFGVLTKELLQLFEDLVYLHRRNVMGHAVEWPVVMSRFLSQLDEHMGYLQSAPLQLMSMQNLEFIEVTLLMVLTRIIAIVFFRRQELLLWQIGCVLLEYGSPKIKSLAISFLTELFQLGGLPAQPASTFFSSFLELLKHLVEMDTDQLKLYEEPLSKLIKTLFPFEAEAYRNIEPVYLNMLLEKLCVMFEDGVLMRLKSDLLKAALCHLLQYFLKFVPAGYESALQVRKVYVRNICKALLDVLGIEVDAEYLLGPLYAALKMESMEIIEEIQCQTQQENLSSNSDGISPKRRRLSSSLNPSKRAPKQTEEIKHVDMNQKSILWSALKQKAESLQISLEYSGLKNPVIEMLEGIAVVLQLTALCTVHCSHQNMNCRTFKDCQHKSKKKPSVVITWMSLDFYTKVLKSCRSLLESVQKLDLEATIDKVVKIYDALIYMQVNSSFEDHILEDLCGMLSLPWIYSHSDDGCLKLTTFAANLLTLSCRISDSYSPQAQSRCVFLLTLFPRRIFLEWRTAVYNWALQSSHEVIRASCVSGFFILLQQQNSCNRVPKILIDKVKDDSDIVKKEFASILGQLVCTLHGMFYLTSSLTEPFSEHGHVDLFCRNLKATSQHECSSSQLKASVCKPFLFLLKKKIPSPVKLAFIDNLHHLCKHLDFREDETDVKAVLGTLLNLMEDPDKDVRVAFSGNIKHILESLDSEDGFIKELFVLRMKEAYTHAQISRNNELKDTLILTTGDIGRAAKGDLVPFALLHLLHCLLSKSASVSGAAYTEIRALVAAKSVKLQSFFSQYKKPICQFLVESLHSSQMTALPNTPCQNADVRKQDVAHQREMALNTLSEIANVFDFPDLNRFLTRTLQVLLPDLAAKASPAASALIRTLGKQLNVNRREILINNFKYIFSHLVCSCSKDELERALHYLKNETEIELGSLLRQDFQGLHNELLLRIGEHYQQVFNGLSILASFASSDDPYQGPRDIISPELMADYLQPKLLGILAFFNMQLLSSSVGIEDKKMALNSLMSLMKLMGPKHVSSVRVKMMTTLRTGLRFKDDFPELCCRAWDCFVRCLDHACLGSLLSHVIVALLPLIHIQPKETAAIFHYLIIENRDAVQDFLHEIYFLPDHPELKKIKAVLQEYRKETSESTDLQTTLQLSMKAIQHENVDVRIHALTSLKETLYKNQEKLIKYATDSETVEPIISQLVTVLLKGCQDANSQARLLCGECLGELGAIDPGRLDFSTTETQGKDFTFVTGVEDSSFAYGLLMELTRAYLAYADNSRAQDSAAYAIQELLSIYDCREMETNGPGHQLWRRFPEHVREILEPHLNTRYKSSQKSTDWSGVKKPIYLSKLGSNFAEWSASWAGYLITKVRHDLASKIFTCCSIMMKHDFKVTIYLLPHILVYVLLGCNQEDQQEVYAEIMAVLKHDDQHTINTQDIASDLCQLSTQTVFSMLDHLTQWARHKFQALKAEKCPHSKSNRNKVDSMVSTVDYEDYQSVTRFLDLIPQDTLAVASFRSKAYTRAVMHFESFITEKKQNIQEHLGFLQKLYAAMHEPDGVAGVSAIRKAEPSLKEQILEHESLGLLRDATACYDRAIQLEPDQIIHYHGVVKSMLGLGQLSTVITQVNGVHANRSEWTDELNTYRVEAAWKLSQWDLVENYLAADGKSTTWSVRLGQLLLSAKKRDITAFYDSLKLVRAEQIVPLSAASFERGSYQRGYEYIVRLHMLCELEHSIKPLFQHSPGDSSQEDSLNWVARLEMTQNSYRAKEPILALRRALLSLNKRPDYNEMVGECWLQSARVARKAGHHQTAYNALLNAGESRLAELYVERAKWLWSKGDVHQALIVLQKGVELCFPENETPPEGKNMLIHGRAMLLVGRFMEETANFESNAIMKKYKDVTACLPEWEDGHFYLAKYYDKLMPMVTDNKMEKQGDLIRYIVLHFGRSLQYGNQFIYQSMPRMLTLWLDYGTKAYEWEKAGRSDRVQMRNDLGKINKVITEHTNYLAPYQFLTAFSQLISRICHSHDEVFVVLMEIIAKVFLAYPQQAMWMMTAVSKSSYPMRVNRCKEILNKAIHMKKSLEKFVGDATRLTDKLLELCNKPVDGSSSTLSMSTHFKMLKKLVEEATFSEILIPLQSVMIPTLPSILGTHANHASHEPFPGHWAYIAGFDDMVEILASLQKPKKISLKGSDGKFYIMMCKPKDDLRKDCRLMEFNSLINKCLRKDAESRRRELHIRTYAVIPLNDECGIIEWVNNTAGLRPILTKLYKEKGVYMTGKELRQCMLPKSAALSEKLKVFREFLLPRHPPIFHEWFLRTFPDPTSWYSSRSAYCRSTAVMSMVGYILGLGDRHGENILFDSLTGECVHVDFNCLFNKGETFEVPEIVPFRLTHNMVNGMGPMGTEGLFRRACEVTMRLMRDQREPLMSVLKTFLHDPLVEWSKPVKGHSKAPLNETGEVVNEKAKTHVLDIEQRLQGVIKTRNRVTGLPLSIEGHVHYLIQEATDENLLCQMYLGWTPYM
full-length human ATR protein, sequence (Q8WXE1 other isoform, or with tags, fused parts or gaps partner): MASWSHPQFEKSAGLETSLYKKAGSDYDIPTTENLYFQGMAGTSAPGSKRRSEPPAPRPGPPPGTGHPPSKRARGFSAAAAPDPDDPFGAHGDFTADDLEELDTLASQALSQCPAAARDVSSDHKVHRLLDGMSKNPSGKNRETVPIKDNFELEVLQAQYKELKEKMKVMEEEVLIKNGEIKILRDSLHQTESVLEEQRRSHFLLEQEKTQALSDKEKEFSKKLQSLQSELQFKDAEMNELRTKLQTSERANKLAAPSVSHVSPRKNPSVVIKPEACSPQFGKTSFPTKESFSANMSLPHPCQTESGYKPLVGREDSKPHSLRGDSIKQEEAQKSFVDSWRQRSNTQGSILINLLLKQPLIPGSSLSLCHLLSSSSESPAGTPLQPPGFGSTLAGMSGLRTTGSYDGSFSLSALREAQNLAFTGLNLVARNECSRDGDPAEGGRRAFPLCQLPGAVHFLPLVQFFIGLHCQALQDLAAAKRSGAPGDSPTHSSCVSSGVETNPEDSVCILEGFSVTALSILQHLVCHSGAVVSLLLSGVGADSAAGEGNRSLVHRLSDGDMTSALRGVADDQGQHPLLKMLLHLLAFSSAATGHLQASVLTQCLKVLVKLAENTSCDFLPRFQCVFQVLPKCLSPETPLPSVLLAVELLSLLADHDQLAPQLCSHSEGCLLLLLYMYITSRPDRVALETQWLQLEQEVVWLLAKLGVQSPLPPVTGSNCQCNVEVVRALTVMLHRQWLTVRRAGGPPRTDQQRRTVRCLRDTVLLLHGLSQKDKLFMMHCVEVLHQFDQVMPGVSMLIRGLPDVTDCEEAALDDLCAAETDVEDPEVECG

| SMILES | IC50 [nM] |
| --- | --- |
| C[C@@H]1COCCN1c1cc(-c2ccc(F)cc2N)c2ccnc(-c3ccn[nH]3)c2n1 [Example 131, 5-fluoro-2-{2-[(3R)-3-methylmorpholin-4-yl]-8-(1H-pyrazol-5-yl)-1,7-naphthyridin-4-yl}aniline] | 23.1 |
| CC(C)S(=O)(=O)c1ccc(-c2cc(N3CCOC[C@H]3C)nc3c(-c4ccn[nH]4)nccc23)cc1 [Example 151, 4-[4-(isopropylsulfonyl)phenyl]-2-[(3R)-3-methylmorpholin-4-yl]-8-(1H-pyrazol-5-yl)-1,7-naphthyridine] | 51.2 |
| CCS(=N)(=O)c1ccc(-c2cc(N3CCOCC3)nc3c(-c4ccn[nH]4)nccc23)cc1 (stereo not drawn) [Example 12, 4-[4-(S-ethylsulfonimidoyl)phenyl]-2-(morpholin-4-yl)-8-(1H-pyrazol-5-yl)-1,7-naphthyridine] | 135 |
| C[C@@H]1COCCN1c1cc(C2(S(C)(=O)=O)CC2)c2ccnc(-c3ccn[nH]3)c2n1 [Example 286, 2-[(3R)-3-methylmorpholin-4-yl]-4-[1-(methylsulfonyl)cyclopropyl]-8-(1H-pyrazol-5-yl)-1,7-naphthyridine] | 14.5 |
| C[C@@H]1COCCN1c1cc(C2=CCSCC2)c2ccnc(-c3ccn[nH]3)c2n1 [Example 108, 4-(3,6-dihydro-2H-thiopyran-4-yl)-2-[(3R)-3-methylmorpholin-4-yl]-8-(1H-pyrazol-5-yl)-1,7-naphthyridine] | 11.5 |
| OCc1cc(N2CCOCC2)nc2c(-c3ccn[nH]3)nccc12 [Example 38, [2-(morpholin-4-yl)-8-(2H-pyrazol-3-yl)-[1,7]naphthyridine-4-yl]methanol] | 502 |
| O=c1cc(-c2cc(N3CCOCC3)nc3c(-c4ccn[nH]4)nccc23)cc[nH]1 [Example 22, 4-[2-(morpholin-4-yl)-8-(1H-pyrazol-5-yl)-1,7-naphthyridin-4-yl]pyridin-2(1H)-one] | 465 |
| O=C1OCCCN1c1cc(N2CCOCC2)nc2c(-c3ccn[nH]3)nccc12 [Example 225, 3-[2-(morpholin-4-yl)-8-(1H-pyrazol-5-yl)-1,7-naphthyridin-4-yl]-1,3-oxazinan-2-one] | 447 |
| CCn1nc(C)cc1-c1cc(N2CCOC[C@H]2C)nc2c(-c3ccn[nH]3)nccc12 [Example 113, 4-(1-ethyl-3-methyl-1H-pyrazol-5-yl)-2-[(3R)-3-methylmorpholin-4-yl]-8-(1H-pyrazol-5-yl)-1,7-naphthyridine] | 5.71 |
| C[C@@H]1COCCN1c1cc(-c2ccc(Cl)s2)c2ccnc(-c3ccn[nH]3)c2n1 [Example 238, 4-(5-chlorothiophen-2-yl)-2-[(3R)-3-methylmorpholin-4-yl]-8-(1H-pyrazol-5-yl)-1,7-naphthyridine] | 34.5 |
| CC(=O)Nc1cccc(-c2cc(N3CCOCC3)nc3c(-c4ccn[nH]4)nccc23)c1 [Example 305, N-{3-[2-(morpholin-4-yl)-8-(1H-pyrazol-5-yl)-1,7-naphthyridin-4-yl]phenyl}acetamide] | 133 |
| Cc1n[nH]cc1-c1cc(N2CCOC[C@H]2C)nc2c(-c3ccn[nH]3)nccc12 [Example 266, 2-[(3R)-3-methylmorpholin-4-yl]-4-(3-methyl-1H-pyrazol-4-yl)-8-(1H-pyrazol-5-yl)-1,7-naphthyridine] | 8.31 |
| C[C@H]1CN(c2cc(N3CCOCC3)nc3c(-c4ccn[nH]4)nccc23)CCO1 [Example 170, 4-[(2S)-2-methylmorpholin-4-yl]-2-(morpholin-4-yl)-8-(1H-pyrazol-5-yl)-1,7-naphthyridine] | 168 |
| O=C1OCCN1c1cc(N2CCOCC2)nc2c(-c3ccn[nH]3)nccc12 [Example 226, 3-[2-(morpholin-4-yl)-8-(1H-pyrazol-5-yl)-1,7-naphthyridin-4-yl]-1,3-oxazolidin-2-one] | 1140 |
| O=C1CCCN1c1cc(N2CCOCC2)nc2c(-c3ccn[nH]3)nccc12 [Example 215, 1-[2-(morpholin-4-yl)-8-(1H-pyrazol-5-yl)-1,7-naphthyridin-4-yl]pyrrolidin-2-one] | 317 |
| Oc1ccc(-c2cc(N3CCOCC3)nc3c(-c4ccn[nH]4)nccc23)cn1 [Example 23, 5-[2-(morpholin-4-yl)-8-(1H-pyrazol-5-yl)-1,7-naphthyridin-4-yl]pyridin-2(1H)-one] | 443 |
| C[C@@H]1COCCN1c1cc(N=S(C)(=O)C(C)(C)C)c2ccnc(-c3ccn[nH]3)c2n1 (stereo partly drawn) [Example 278, 4-{[tert-butyl(methyl)oxido-λ^6-sulfanylidene]amino}-2-[(3R)-3-methylmorpholin-4-yl]-8-(1H-pyrazol-5-yl)-1,7-naphthyridine] | 26.9 |
| COC(=O)c1ccc(-c2cc(N3CCOC[C@H]3C)nc3c(-c4ccn[nH]4)nccc23)[nH]1 [Example 120, Methyl 5-{2-[(3R)-3-methylmorpholin-4-yl]-8-(1H-pyrazol-5-yl)-1,7-naphthyridin-4-yl}-1H-pyrrole-2-carboxylate] | 13.1 |

| SMILES | IC50 [nM] |
| --- | --- |
| CCn1nccc1-c1cc(N2CCOC[C@H]2C)nc2c(-c3ccn[nH]3)nccc12 [Example 69, 4-(1-ethyl-1H-pyrazol-5-yl)-2-[(3R)-3-methylmorpholin-4-yl]-8-(1H-pyrazol-5-yl)-1,7-naphthyridine] | 5.34 |
| c1cc(-c2nccc3c(N4C[C@H]5COC[C@H]5C4)cc(N4CCOCC4)nc23)[nH]n1 [Example 183, 2-(morpholin-4-yl)-8-(1H-pyrazol-5-yl)-4-[(3aR,6aS)-tetrahydro-1H-furo[3,4-c]pyrrol-5(3H)-yl]-1,7-naphthyridine] | 649 |
| C[C@@H]1COCCN1c1cc([C@H]2C[C@@H]2C)c2ccnc(-c3ccn[nH]3)c2n1 (stereo in doubt) [Example 171, 4-[(trans)-2-methylcyclopropyl]-2-[(3R)-3-methylmorpholin-4-yl]-8-(1H-pyrazol-5-yl)-1,7-naphthyridine] | 94.7 |
| CS(=O)(=O)c1cccc(-c2cc(N3CCOCC3)nc3c(-c4cc[nH]n4)nccc23)c1 [Example 15, 4-(3-methanesulphonylphenyl)-2-(morpholin-4-yl)-8-(1H-pyrazol-3-yl)-[1,7]naphthyridine] | 163 |
| CC(C)S(=O)(=O)c1cc(N2CCOCC2)nc2c(-c3ccn[nH]3)nccc12 [Example 199, 2-(morpholin-4-yl)-4-(propan-2-ylsulfonyl)-8-(1H-pyrazol-5-yl)-1,7-naphthyridine] | 138 |
| CS(=O)(=O)c1ccc(-c2cc(N3CCOCC3)nc3c(-c4ccn[nH]4)nccc23)cn1 [Example 3, 4-[6-(methylsulfonyl)pyridin-3-yl]-2-(morpholin-4-yl)-8-(1H-pyrazol-5-yl)-1,7-naphthyridine] | 56.9 |
| C[C@@H]1COCCN1c1cc(-c2ccc(S(C)(=N)=O)cc2)c2ccnc(-c3ccn[nH]3)c2n1 (stereo partly drawn) [Example 30, 4-[2-((R)-3-methylmorpholin-4-yl)-8-(2H-pyrazol-3-yl)-[1,7]naphthyridine-4-yl]phenyl-S-methylsulphoximide] | 22.8 |
| Oc1ccc(-c2cc(N3CCOCC3)nc3c(-c4ccn[nH]4)nccc23)cn1 [Example 390, 5-[2-(morpholin-4-yl)-8-(1H-pyrazol-5-yl)-1,7-naphthyridin-4-yl]pyridin-2-ol] | 663 |
| CC(C)Oc1ncccc1-c1cc(N2CCOCC2)nc2c(-c3ccn[nH]3)nccc12 [Example 405, 2-(morpholin-4-yl)-4-[2-(propan-2-yloxy)pyridin-3-yl]-8-(1H-pyrazol-5-yl)-1,7-naphthyridine] | 419 |
| Cc1cncc(-c2cc(N3CCOCC3)nc3c(-c4ccn[nH]4)nccc23)c1 [Example 352, 4-(5-methylpyridin-3-yl)-2-(morpholin-4-yl)-8-(1H-pyrazol-5-yl)-1,7-naphthyridine] | 175 |
| NC(=O)C1CCCN(c2cc(N3CCOCC3)nc3c(-c4ccn[nH]4)nccc23)C1 (stereo not drawn) [Example 416, 1-[2-(morpholin-4-yl)-8-(1H-pyrazol-5-yl)-1,7-naphthyridin-4-yl]piperidine-3-carboxamide] | 251 |
| CC(C)Oc1ncccc1-c1cc(N2CCOC[C@H]2C)nc2c(-c3ccn[nH]3)nccc12 [Example 219, 2-[(3R)-3-methylmorpholin-4-yl]-4-[2-(propan-2-yloxy)pyridin-3-yl]-8-(1H-pyrazol-5-yl)-1,7-naphthyridine] | 132 |
| Cc1cscc1-c1cc(N2CCOCC2)nc2c(-c3ccn[nH]3)nccc12 [Example 370, 4-(4-methylthiophen-3-yl)-2-(morpholin-4-yl)-8-(1H-pyrazol-5-yl)-1,7-naphthyridine] | 35 |
| C[C@@H]1COCCN1c1cc(OCCCS(C)(=O)=O)c2ccnc(-c3ccn[nH]3)c2n1 [Example 197, 2-[(3R)-3-methylmorpholin-4-yl]-4-[3-(methylsulfonyl)propoxy]-8-(1H-pyrazol-5-yl)-1,7-naphthyridine] | 72.4 |
| CCOP(=O)(CC(C)C)c1cc(N2CCOC[C@H]2C)nc2c(-c3ccn[nH]3)nccc12 (stereo partly drawn) [Example 144, Ethyl isobutyl{2-[(3R)-3-methylmorpholin-4-yl]-8-(1H-pyrazol-5-yl)-1,7-naphthyridin-4-yl}phosphinate] | 75.1 |
| C[C@@H]1COCCN1c1cc(-c2cc(S(C)(=O)=O)ccc2F)c2ccnc(-c3ccn[nH]3)c2n1 [Example 150, 4-[2-fluoro-5-(methylsulfonyl)phenyl]-2-[(3R)-3-methylmorpholin-4-yl]-8-(1H-pyrazol-5-yl)-1,7-naphthyridine] | 50.3 |
| c1ccc(Sc2cc(N3CCOCC3)nc3c(-c4ccn[nH]4)nccc23)cc1 [Example 207, 2-(morpholin-4-yl)-4-(phenylsulfanyl)-8-(1H-pyrazol-5-yl)-1,7-naphthyridine] | 542 |
| C[C@@H]1COCCN1c1cc(-c2cnn(C(C)(C)C)c2)c2ccnc(-c3ccn[nH]3)c2n1 [Example 257, 4-(1-tert-butyl-1H-pyrazol-4-yl)-2-[(3R)-3-methylmorpholin-4-yl]-8-(1H-pyrazol-5-yl)-1,7-naphthyridine] | 58.8 |

same assay, conditions: tracer B, TR-FRET; read-out: ATR binding (tracer B) IC50

| SMILES | IC50 [nM] |
| --- | --- |
| CC(C)S(=O)(=O)c1ccc(-c2cc(N3CCOC[C@H]3C)nc3c(-c4ccn[nH]4)nccc23)cc1 [Example 151, 4-[4-(isopropylsulfonyl)phenyl]-2-[(3R)-3-methylmorpholin-4-yl]-8-(1H-pyrazol-5-yl)-1,7-naphthyridine] | 23.2 |
| CCS(=N)(=O)c1ccc(-c2cc(N3CCOCC3)nc3c(-c4ccn[nH]4)nccc23)cc1 (stereo not drawn) [Example 12, 4-[4-(S-ethylsulfonimidoyl)phenyl]-2-(morpholin-4-yl)-8-(1H-pyrazol-5-yl)-1,7-naphthyridine] | 47.2 |
| OCc1cc(N2CCOCC2)nc2c(-c3ccn[nH]3)nccc12 [Example 38, [2-(morpholin-4-yl)-8-(2H-pyrazol-3-yl)-[1,7]naphthyridine-4-yl]methanol] | 405 |
| CS(=O)(=O)c1cccc(-c2cc(N3CCOCC3)nc3c(-c4cc[nH]n4)nccc23)c1 [Example 15, 4-(3-methanesulphonylphenyl)-2-(morpholin-4-yl)-8-(1H-pyrazol-3-yl)-[1,7]naphthyridine] | 174 |
| CS(=O)(=O)c1ccc(-c2cc(N3CCOCC3)nc3c(-c4ccn[nH]4)nccc23)cn1 [Example 3, 4-[6-(methylsulfonyl)pyridin-3-yl]-2-(morpholin-4-yl)-8-(1H-pyrazol-5-yl)-1,7-naphthyridine] | 38.7 |
| C[C@@H]1COCCN1c1cc(-c2ccc(S(C)(=N)=O)cc2)c2ccnc(-c3ccn[nH]3)c2n1 (stereo partly drawn) [Example 30, 4-[2-((R)-3-methylmorpholin-4-yl)-8-(2H-pyrazol-3-yl)-[1,7]naphthyridine-4-yl]phenyl-S-methylsulphoximide] | 9.48 |

Source: patent US9549932B2, “2-(morpholin-4-yl)-1,7-naphthyridines” (BAYER PHARMA AKTIENGESELLSCHAFT, priority 2014, dated 2017)
